Here are results for 24 molecules from patent US9067934B2, “Bicyclic pyridinones” (Pfizer Inc., priority 2011, dated 2015).

pIC50: −log10 of the molar value.

The test system of this assay is production of amyloid beta protein Aβ(1-42) (γ-secretase) in human WT-APP overexpressing CHO cells. Put plainly: Cell-Based γ-Secretase Assay with ELISA Readout. The following applies: human WT-APP overexpressing CHO cells, ~24 hours at 37° C., Aβ(1-42) ELISA; footnotes: a = geometric mean of >15 determinations, b = single determination, c = geometric mean of 7-15 determinations; read-out: Aβ 42B IC50 (Geometric Mean of 2-6 Determinations). The protocol: Cell-Based γ-Secretase Assay with ELISA Readout
The ability of compounds to modulate production of amyloid beta protein Aβ(1-42) was determined using human WT-APP overexpressing CHO cells. Cells were plated at 22,000 cells/100 μL well in 96 well tissue culture treated, clear plates (Falcon) in DMEM/F12 based medium and incubated for 24 hours at 37° C. Compounds for testing were diluted in 100% DMSO to achieve an eleven points, half log, dose response for IC50 determinations. Compounds were added in fresh medium to achieve 1% final DMSO. Appropriate vehicle or inhibitor controls were added into control wells individually to obtain minimum or maximum inhibition values, respectively, for the assay signal window before the plates were incubated for ˜24 hours at 37° C. This procedure produces conditioned media in each well which is tested for Aβ(1-42) levels in the ELISA detection step described next. The remaining cell cultures in each well are also tested for cell toxicity as described below.
Coating of ELISA assay plates was initiated by addition of 50 μL/well of an in-house Aβ(1-42) specific antibody at (3 μg/mL) in 0.1 M NaHCO3 (pH 9.0) into black 384-well Maxisorp® plates (Nunc) and incubated overnight at 4° C. The capture antibody was then aspirated from the ELISA assay plates and plates were washed 4×100 μL with Wash Buffer (Dulbecco's PBS, 0.05% Tween 20). 90 μL/well of Blocking Buffer (Dulbecco's PBS, 1.0% BSA (Sigma A7030)) was then added to plates. Ambient temperature incubation was allowed to proceed for a minimum of two hours. Blocking buffer was then removed and 20 μL/well Assay Buffer (Dulbecco's PBS, 1.0% BSA (Sigma A7030), 0.05% Tween 20) was then added. At this point, 40 μL (in duplicate) of experimental conditioned media (described above) were transferred into wells of the blocked ELISA plates containing the capture antibody, followed by overnight incubation at 4° C. Cell toxicity was also measured in the corresponding remaining cells after removal of the conditioned media for the Aβ(1-42) assay by a colorimetric cell proliferation assay (CellTiter 96® AQueous One Solution Cell Proliferation Assay, Promega) according to the manufacturer's instructions.
After overnight incubation of the ELISA assay plates at 4° C., unbound Aβ peptides were removed via (4×100 μL) washes with Wash Buffer. Europium (Eu) labeled (custom labeled, Perkin Elmer) Aβ(1-16) 6e10 Monoclonal Antibody (Covance #SIG-39320) was added, (50 μL/well Eu-6e10 @ 1:10,000, 20 uM EDTA) in Assay Buffer. Incubation at ambient temperature for a minimum of 2 hours was followed by (4×100 μL) washes with Wash Buffer, before 30 μL/well of Delfia Enhancement Solution (Perkin Elmer) was added. Following an one hour ambient temperature incubation, the plates were read on an EnVision plate reader (Perkin Elmer) using standard DELFIA TRF settings. Data analysis including inhibitory IC50 determination was performed using nonlinear regression fit analysis (in-house software) and the appropriate plate mean values for the maximum and minimum inhibition controls.
Take `Cc1cn(-c2ccc3n(c2=O)CCN(C(C)C(C)Oc2ccccc2S(F)(F)(F)(F)F)C3=O)cn1` (single isomer, unassigned) [Example 124, 7-(4-methyl-1H-imidazol-1-yl)-2-{3-[2-(pentafluoro-λ^6-sulfanyl)phenoxy]butan-2-yl}-3,4-dihydro-2H-pyrido[1,2-a]pyrazine-1,6-dione]: the pIC50 (as a rule, the IC50 on a negative log10 scale, so that one unit is a factor of ten) was 5.64.

For the molecule `Cc1cn(-c2ccc3n(c2=O)CCN(C(C)C(C)Oc2ccccc2S(F)(F)(F)(F)F)C3=O)cn1` (single isomer, unassigned) [Example 125, 7-(4-methyl-1H-imidazol-1-yl)-2-{3-[2-(pentafluoro-λ^6-sulfanyl)phenoxy]butan-2-yl}-3,4-dihydro-2H-pyrido[1,2-a]pyrazine-1,6-dione], the pIC50 is 6.19. In the case of `Cc1cn(-c2ccc3n(c2=O)CCN(C(C)C(C)Oc2ccccc2S(F)(F)(F)(F)F)C3=O)cn1` (single isomer, unassigned) [Example 126, 7-(4-methyl-1H-imidazol-1-yl)-2-{3-[2-(pentafluoro-λ^6-sulfanyl)phenoxy]butan-2-yl}-3,4-dihydro-2H-pyrido[1,2-a]pyrazine-1,6-dione], the negative-log IC50 (pIC50) was 7.70. In the case of `Cc1cn(-c2ccc3n(c2=O)CCN(C(C)C(C)Oc2ccccc2S(F)(F)(F)(F)F)C3=O)cn1` (single isomer, unassigned) [Example 127, 7-(4-methyl-1H-imidazol-1-yl)-2-{3-[2-(pentafluoro-λ^6-sulfanyl)phenoxy]butan-2-yl}-3,4-dihydro-2H-pyrido[1,2-a]pyrazine-1,6-dione], the pIC50 is 5.97. Consider `Cc1cn(-c2ccc3n(c2=O)CCN(CCOc2ccc(F)cc2C(F)(F)F)C3=O)cn1` [Example 1, 2-{2-[4-Fluoro-2-(trifluoromethyl)phenoxy]ethyl}-7-(4-methyl-1H-imidazol-1-yl)-3,4-dihydro-2H-pyrido[1,2-a]pyrazine-1,6-dione], for which the negative-log IC50 (pIC50) is 6.59. Regarding `Cc1ncc(-c2ccc3n(c2=O)CCN(CCOc2cccc4ccc(F)cc24)C3=O)o1` [Example 2, 2-{2-[(7-Fluoronaphthalen-1-yl)oxy]ethyl}-7-(2-methyl-1,3-oxazol-5-yl)-3,4-dihydro-2H-pyrido[1,2-a]pyrazine-1,6-dione], the pIC50 is 6.36. As to `Cc1cn(-c2ccc3n(c2=O)CCN(CCOc2cccc4ccccc24)C3=O)cn1` [Example 3, 7-(4-methyl-1H-imidazol-1-yl)-2-[2-(1-naphthyloxy)ethyl]-3,4-dihydro-2H-pyrido[1,2-a]pyrazine-1,6-dione], the negative-log IC50 (pIC50) is 7.07. As to `Cc1cn(-c2ccc3n(c2=O)CCN(CC(C)(C)Oc2cccc(Cl)c2Cl)C3=O)cn1` [Example 4, 2-[2-(2,3-dichlorophenoxy)-2-methylpropyl]-7-(4-methyl-1H-imidazol-1-yl)-3,4-dihydro-2H-pyrido[1,2-a]pyrazine-1,6-dione], the negative-log IC50 (pIC50) was 6.84. Consider `Cc1cn(-c2ccc3n(c2=O)CCN(CC(C)Oc2ccc(C(F)(F)F)cc2)C3=O)cn1` (stereo not drawn) [Example 5, 7-(4-methyl-1H-imidazol-1-yl)-2-{2-[4-(trifluoromethyl)phenoxy]propyl}-3,4-dihydro-2H-pyrido[1,2-a]pyrazine-1,6-dione], for which the negative logarithm of the IC50 (pIC50) was 6.00. Next, `Cc1cn(-c2ccc3n(c2=O)CCN(CCOc2ccc(Cl)c4ccccc24)C3=O)cn1` [Example 6, 2-{2-[(4-chloro-1-naphthyl)oxy]ethyl}-7-(4-methyl-1H-imidazol-1-yl)-3,4-dihydro-2H-pyrido[1,2-a]pyrazine-1,6-dione]: 7.44; `COc1ccc2cccc(OCCN3CCn4c(ccc(-n5cnc(C)c5)c4=O)C3=O)c2c1` [Example 7, 2-{2-[(7-methoxy-1-naphthyl)oxy]ethyl}-7-(4-methyl-1H-imidazol-1-yl)-3,4-dihydro-2H-pyrido[1,2-a]pyrazine-1,6-dione]: 7.38. With `COc1ccc(OCCN2CCn3c(ccc(-n4cnc(C)c4)c3=O)C2=O)c2ccccc12` [Example 8, 2-{2-[(4-methoxy-1-naphthyl)oxy]ethyl}-7-(4-methyl-1H-imidazol-1-yl)-3,4-dihydro-2H-pyrido[1,2-a]pyrazine-1,6-dione], the negative logarithm of the IC50 (pIC50) was 7.03. Next, `Cc1cn(-c2ccc3n(c2=O)CCN(CCOc2ccc(Cl)c4c2CCC4)C3=O)cn1` [Example 9, 2-{2-[(7-chloro-2,3-dihydro-1H-inden-4-yl)oxy]ethyl}-7-(4-methyl-1H-imidazol-1-yl)-3,4-dihydro-2H-pyrido[1,2-a]pyrazine-1,6-dione]: 7.08.

On to `Cc1cn(-c2ccc3n(c2=O)CCN(CCOc2cc(Cl)cc(Cl)c2Cl)C3=O)cn1` [Example 10, 7-(4-methyl-1H-imidazol-1-yl)-2-[2-(2,3,5-trichlorophenoxy)ethyl]-3,4-dihydro-2H-pyrido[1,2-a]pyrazine-1,6-dione], for which the negative logarithm of the IC50 (pIC50) is 6.90. Take `Cc1cn(-c2ccc3n(c2=O)CCN(CCOc2ccc(F)c4occc24)C3=O)cn1` [Example 11, 2-{2-[(7-fluoro-1-benzofuran-4-yl)oxy]ethyl}-7-(4-methyl-1H-imidazol-1-yl)-3,4-dihydro-2H-pyrido[1,2-a]pyrazine-1,6-dione]: the pIC50 is 6.27. In the case of `Cc1cn(-c2ccc3n(c2=O)CCN(CCOc2ccc(Cl)c(C(F)(F)F)c2)C3=O)cn1` [Example 12, 2-{2-[4-chloro-3-(trifluoromethyl)phenoxy]ethyl}-7-(4-methyl-1H-imidazol-1-yl)-3,4-dihydro-2H-pyrido[1,2-a]pyrazine-1,6-dione], the negative logarithm of the IC50 (pIC50) was 6.71. Next, `Cc1cn(-c2ccc3n(c2=O)CCN(CCOc2ccccc2C(C)(C)C)C3=O)cn1` [Example 13, 2-[2-(2-tert-butylphenoxy)ethyl]-7-(4-methyl-1H-imidazol-1-yl)-3,4-dihydro-2H-pyrido[1,2-a]pyrazine-1,6-dione]: 6.97; `Cc1cn(-c2ccc3n(c2=O)CCN(CCOc2cccc4c2CCCC4)C3=O)cn1` [Example 14, 7-(4-methyl-1H-imidazol-1-yl)-2-[2-(5,6,7,8-tetrahydronaphthalen-1-yloxy)ethyl]-3,4-dihydro-2H-pyrido[1,2-a]pyrazine-1,6-dione]: 6.71. Next, `Cc1cn(-c2ccc3n(c2=O)CCN(CCOc2ccccc2OC(F)(F)F)C3=O)cn1` [Example 15, 7-(4-methyl-1H-imidazol-1-yl)-2-{2-[2-(trifluoromethoxy)phenoxy]ethyl}-3,4-dihydro-2H-pyrido[1,2-a]pyrazine-1,6-dione]: 6.56; `Cc1cn(-c2ccc3n(c2=O)CCN(CCOc2cccc4c2CCC4)C3=O)cn1` [Example 16, 2-[2-(2,3-dihydro-1H-inden-4-yloxy)ethyl]-7-(4-methyl-1H-imidazol-1-yl)-3,4-dihydro-2H-pyrido[1,2-a]pyrazine-1,6-dione]: 6.63. Next, `Cc1ccc(OCCN2CCn3c(ccc(-n4cnc(C)c4)c3=O)C2=O)c(Cl)c1` [Example 17, 2-[2-(2-chloro-4-methylphenoxy)ethyl]-7-(4-methyl-1H-imidazol-1-yl)-3,4-dihydro-2H-pyrido[1,2-a]pyrazine-1,6-dione]: 6.82; `Cc1cn(-c2ccc3n(c2=O)CCN(CCOc2cccc(-c4ccccc4)c2)C3=O)cn1` [Example 18, 2-[2-(biphenyl-3-yloxy)ethyl]-7-(4-methyl-1H-imidazol-1-yl)-3,4-dihydro-2H-pyrido[1,2-a]pyrazine-1,6-dione]: 6.82; `Cc1cn(-c2ccc3n(c2=O)CCN(CCOc2cccc(Oc4ccccc4)c2)C3=O)cn1` [Example 19, 7-(4-methyl-1H-imidazol-1-yl)-2-[2-(3-phenoxyphenoxy)ethyl]-3,4-dihydro-2H-pyrido[1,2-a]pyrazine-1,6-dione]: 6.69. `Cc1cn(-c2ccc3n(c2=O)CCN(CCOc2cccc(C(F)(F)F)c2Cl)C3=O)cn1` [Example 20, 2-{2-[2-chloro-3-(trifluoromethyl)phenoxy]ethyl}-7-(4-methyl-1H-imidazol-1-yl)-3,4-dihydro-2H-pyrido[1,2-a]pyrazine-1,6-dione]: the negative-log IC50 (pIC50) is 6.80.
